Structures can show the parent of a compound that is named as a salt. Where two headings read alike, the source gives them in different places.
Columns and labels:
DNA = conditions: hypoxic conditions; cited from earlier work
[1] = tested on: colon 26, Lewis lung, Ridgway osteosarcoma, B16, Lieberman plasma cell, P388 or L1210 cancer cells; conditions: cited from earlier work
[2] = in vivo; cited from earlier work
[3] = in vivo; cited from earlier work; remark: listed apart in the source
[4] = in vivo; cited from earlier work; remark: listed apart in the source
Human Platelets = conditions: cited from earlier work
[5] = high doses; cited from earlier work
tumor cells = conditions: cited from earlier work
[6] = tested on: P-388 leukemia and B-16 melanoma; conditions: mouse, in vivo; cited from earlier work
[7] = cited from earlier work
L-1210 leukemia cells = conditions: cited from earlier work
[8] = cited from earlier work; remark: listed apart in the source
[9] = cited from earlier work; remark: listed apart in the source
Human tumor cells = conditions: cited from earlier work
[10] = Filtration of 40 mg/mL stock mixture, content by HPLC; format: physicochemical; conditions: 5-μm, 1.2-μm and 0.2-μm filters
Method: Finished vials are sealed under nitrogen and partial vacuum for storage. Storage of the vials is typically at 18° C. to 25° C.

[11] = tested on: hepatic microsomal enzymes; conditions: in vitro; specific metabolites not identified; cited from earlier work
calf thymus DNA = conditions: in vitro; cited from earlier work
plasma proteins = conditions: cited from earlier work
[12] = Assay of reconstituted bisantrene dihydrochloride diluted in i.v. bag, with or without 0.2-μm filter, glass vs plastic sample vials; format: physicochemical
[13] = cited from earlier work; remark: listed apart in the source
[14] = cited from earlier work; remark: listed apart in the source

C(=N\NC1=NCCN1)/c1c2ccccc2c(/C=N/NC2=NCCN2)c2ccccc12 [bisantrene, 9,10-anthracenedicarboxaldehyde-bis [(4,5-dihydro-1H-imidazole-2-yl) hydrazine] dihydrochloride]
cytotoxicity and DNA strand breaks (DNA): reduced | activity in cancer models ([1]; intravenously (i.v.), intraperitoneally (i.p.), or subcutaneously (s.c.)): effective | activity in cancer models ([1]; orally): inactive | brain levels [2]: extremely low | distribution to lymph nodes and bone marrow [2]: did distribute | tissues with the highest concentration (in descending order) [2]: kidney, liver, gallbladder, spleen, lung, and heart | cardiotoxicity [3]: not cardiotoxic | precipitation of drug in the body [4]: precipitates in the body have been observed | effect on platelet aggregation (Human Platelets): inhibit platelet aggregation | toxicities observed [5]: leukopenia, anorexia, diarrhea, injection site necrosis, enterocolitis, muscle degeneration, and pulmonary edema | activity in clonogenic assays (tumor cells; breast, small cell lung, large cell lung, squamous cell lung, ovarian, pancreatic, renal, adrenal, head and neck, sarcoma, gastric, lymphoma and melanoma tumor cells): Activity | cross resistance with Adriamycin and mitoxantrone (tumor cells): lack of cross resistance | activity in clonogenic assays (tumor cells; colorectal cancer): not in colorectal cancer | antitumor activity [6]: antitumor activity | toxicity for which the Phase II study was terminated ([7]; heavily pretreated patients with metastatic breast cancer): significant local toxicity | alopecia (hair loss) compared with doxorubicin ([7]; human, in vivo): less intense | anemia and cumulative myelosuppressive toxic effects ([7]; human, in vivo): not encountered | cardiotoxicity in the clinic compared with other agents in its class ([7]; human, in vivo): less cardiotoxicity | electrocardiographic changes while receiving the drug ([7]; human, in vivo): No patients experienced electrocardiographic changes | fever ([7]; human, in vivo): mild fever | major dose-limiting toxic effect ([7]; human, in vivo): leukopenia | nausea or vomiting ([7]; human, in vivo): very little nausea or vomiting | patients reporting malaise ([7]; human, in vivo): up to one-half of patients | patients with anaphylactoid reactions following infusion ([7]; human, in vivo): Up to 10% | phlebitis along peripheral veins used for drug infusion ([7]; human, in vivo): severe phlebitis | radioangiocardiographic monitoring of cardiac function ([7]; human, in vivo): no decrease in ejection fraction | recovery from myelosuppression ([7]; human, in vivo): ≤ 19 days | thrombocytopenia ([7]; human, in vivo): mild | nadir for myelosuppression ([7]; schedule of every 3 to 4 weeks): 9 days | DNA strand breaks typical of inhibition of DNA topoisomerase II enzymes (L-1210 leukemia cells): induce protein-associated DNA strand breaks | DNA supercoiling indicative of DNA intercalation (L-1210 leukemia cells): induce altered DNA supercoiling | maximally tolerated dose ([8]; daily×5, repeat every 4 week (Spiegel et al. 1982)): 80 mg/m^2 | maximally tolerated dose ([8]; monthly (every 3-4 week) (Von Hoff et al. 1981b)): 260 mg/m^2 | maximally tolerated dose ([8]; monthly (every 3-4 week), patients with poor bone marrow reserve): 240 mg/mg^2 | maximally tolerated dose ([8]; weekly×3 (Alberts et al. 1982)): 200 mg/m^2 | maximally tolerated dose ([8]; weekly×3, patients with poor bone marrow reserve (Alberts et al. 1982)): 150 mg/mg^2 | maximally tolerated dose ([8]; weekly×3, repeat every 4-5 week (Yap et al. 1982)): 150 mg/m^2 | activity in refractory malignant melanoma ([9]; Phase II): inactive | activity in phase I clinical trials ([9]; hepatocellular cancer and hypernephroma (one patient each)): showed activity | activity in phase I clinical trials ([9]; lymphoma, myeloma, melanoma, renal cancer, tumors of the bladder and lung): showed activity | activity in Phase II clinical trials ([9]; patients with metastatic breast cancer): active | activity in human colon cancer ([9]; tested in vivo (Phase II, advanced colorectal cancer)): inactive | activity in phase I clinical trials ([9]; two other hypernephroma patients, five-day schedule): activity was also observed | sensitivity of human tumor cells (Human tumor cells; breast, ovarian, renal, small cell and non-small cell lung cancer, lymphoma, acute myelogenous leukemia, melanoma, gastric, adrenal, head and neck cancer): sensitive | activity in human colon cancer (Human tumor cells; tested in vitro): inactive | effect of removal of particulates on content in solution [10]: does not diminish | metabolism by hepatic microsomal enzymes [11]: substrate | shape of DNA dissociation curves (calf thymus DNA): biphasic | bound to plasma proteins (plasma proteins): More than 95% | assay after passage through 0.2-μm filter versus i.v. bag assay ([12]; sample collected in glass vials): approximately 5 % lower | assay after passage through 0.2-μm filter versus i.v. bag assay ([12]; sample collected in plastic vials): approximately matched | assay of fully diluted drug in the i.v. bag versus reconstituted drug in the finished vial ([12]; samples collected in glass vials): approximately 5 % lower | assay of fully diluted drug in the i.v. bag versus reconstituted drug in the finished vial ([12]; samples collected in plastic vials): no reduction | dose excreted in the urine ([13]; in vivo): Less than 7% | route by which the majority of the drug is eliminated ([13]; in vivo): hepatobiliary route | area under the plasma concentration×time curve ([13]; intravenous dose 260 mg/m^2): 4400 µg·h/mL | area under the plasma concentration×time curve ([13]; intravenous dose 340 mg/m^2): 5700 µg·h/mL | beta phase of elimination ([13]; plasma): approximately 1.5 hours | initial distributive phase of elimination ([13]; plasma): 6 min

O=C([O-])O.[Na+] [sodium bicarbonate]
effect of local injection on bisantrene extravasation necrosis [14]: blocked

— patent publication US20210379021A1 (Race Oncology Ltd., priority 2018, published 2021)
